Test results: patent US9492510B2, “Composition and method for inhibiting tumor cell growth” (St. Jude Children's Research Hospital, priority 2006, dated 2016)
“Also recorded” adds a separate entry of the source. Where two headings read alike, the source gives them in different places.

Legend:
U373MG cells [1] = experiment: Growth inhibition by CPT-11 of U373MG cells; type: cell-based, human
Protocol: Experiments were also performed in human brain tumor cells (U373MG) where the growth of the cells was examined in cells that expressed the mutant form of the human CE enzyme.
(§1) Experiments were also performed to determine whether cells expressing a secreted form of hCElm6 (SEQ ID NO:16) produced media that had CE activity.
(§2) Transfection of Cell Lines. Transient transfection of Cos7 cells was achieved by electroporation (Potter, et al. 1998. Cancer Res. 52:2646-2651). For the generation of stable cell lines, cDNAs were ligated into pIRESneo and U373MG cells were electroporated under similar conditions. Transfectants were selected in media containing 400 μg/ml of G418. Since the CE cDNA was linked via an internal ribosome entry sequence (IRES) to the neomycin gene, selection of individual G418-resistant clones was not necessary.
(§3) Construction of Adenovirus. Replication-deficient adenovirus expressing hCElm6 or rCE were constructed using standard protocols (Wierdl, et al. 2001. Cancer Res. 61:5078-5082). Multiplicity of infection (moi) was defined as the number of plaques produced in 1×10^6 293 cells in a total volume of 1 ml of media after incubation with virus for 1 hour.
(§4) Growth Inhibition Assays.

[2] = molecular target: T1, hCE1 variant hCE1m6 (hCE1mut6; L362M, M363L, K459R, F448Y, Q449R, L358I, S364G, Q362 insertion), SEQ ID NO:3 (Homo sapiens, UniProt P23141, F449Y/K460R/L358I/L363M/M364L/Q450R/S365G); experiment: Kinetics of CPT-11 hydrolysis by purified hCE1m6; type: biochemical
T1 sequence (P23141 18-567 L358I/L363M/M364L/S365G/F449Y/Q450R/K460R): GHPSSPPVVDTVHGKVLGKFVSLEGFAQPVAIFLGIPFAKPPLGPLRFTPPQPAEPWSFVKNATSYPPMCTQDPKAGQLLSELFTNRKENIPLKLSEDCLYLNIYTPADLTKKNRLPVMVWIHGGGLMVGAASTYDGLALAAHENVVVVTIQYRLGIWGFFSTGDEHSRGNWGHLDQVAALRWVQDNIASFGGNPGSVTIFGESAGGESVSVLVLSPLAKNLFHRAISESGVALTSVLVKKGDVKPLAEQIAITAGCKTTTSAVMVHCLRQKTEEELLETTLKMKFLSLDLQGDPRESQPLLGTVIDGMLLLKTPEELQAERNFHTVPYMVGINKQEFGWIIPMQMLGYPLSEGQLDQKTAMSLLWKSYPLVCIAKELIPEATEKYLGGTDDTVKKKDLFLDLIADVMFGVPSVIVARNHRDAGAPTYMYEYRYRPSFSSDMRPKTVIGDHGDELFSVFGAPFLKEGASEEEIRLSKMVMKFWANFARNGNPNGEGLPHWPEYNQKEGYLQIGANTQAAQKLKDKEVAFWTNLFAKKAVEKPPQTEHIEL
Description: (§5) These experiments determined the Km, Vmax, kcat and kcat/Km values for the different enzymes.
(§6) Protein Purification. […] For hiCE, an alternative purification procedure was developed using DEAE chromatography and elution with a pH/salt gradient.
(§7) Determination of Kinetic Parameters for Substrate Hydrolysis.

[3] = molecular target: T2, hiCE (human intestinal carboxylesterase) (Homo sapiens, UniProt O00748); experiment: Kinetics of CPT-11 hydrolysis by purified hiCE; type: biochemical
T2 sequence (O00748 27-559): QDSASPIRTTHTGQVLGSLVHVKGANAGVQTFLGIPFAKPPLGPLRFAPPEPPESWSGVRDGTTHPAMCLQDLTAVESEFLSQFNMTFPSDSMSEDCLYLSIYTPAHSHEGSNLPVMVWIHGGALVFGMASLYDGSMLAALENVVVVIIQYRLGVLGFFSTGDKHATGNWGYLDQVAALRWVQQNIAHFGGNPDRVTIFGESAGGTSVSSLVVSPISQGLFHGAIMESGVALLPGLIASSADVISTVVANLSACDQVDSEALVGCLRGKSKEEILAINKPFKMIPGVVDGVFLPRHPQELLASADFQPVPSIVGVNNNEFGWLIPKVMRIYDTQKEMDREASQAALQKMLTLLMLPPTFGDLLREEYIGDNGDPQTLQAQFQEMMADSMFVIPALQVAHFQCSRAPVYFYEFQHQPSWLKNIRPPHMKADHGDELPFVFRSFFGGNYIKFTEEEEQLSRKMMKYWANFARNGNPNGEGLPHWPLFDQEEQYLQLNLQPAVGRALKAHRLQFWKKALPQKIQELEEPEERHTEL
Description: as §5, §6, §7

COS7 cells = experiment: Growth inhibition of transiently transfected Cos7 cells by CPT-11; type: cell-based, African green monkey; settings: Chlorocebus sabaeus
Protocol: as §2, §4

U373MG cells [4] = experiment: Growth inhibition of U373MG cells expressing intracellular or secreted hCE1mut6 by CPT-11; type: cell-based; settings: Homo sapiens, U373 MG, read-out: IC50 for CPT-11
Protocol: as §1, §4

Rh30 cells = experiment: Growth inhibition of adenovirus-transduced Rh30 cells by CPT-11; type: cell-based; settings: Homo sapiens
Protocol: as §3, §4

SK-N-As cells = experiment: Growth inhibition of adenovirus-transduced SK-N-As cells by CPT-11; type: cell-based; settings: Homo sapiens
Protocol: as §3, §4

[5] = tested on: hCE1 (human liver carboxylesterase), wild type, SEQ ID NO:1; settings: CPT-11 hydrolysis; cited from earlier work
[6] = tested on: rCE (rabbit liver carboxylesterase), wild type, SEQ ID NO:2; settings: CPT-11 hydrolysis; cited from earlier work
[7] = CPT-11 administered to humans; cited from earlier work
[8] = mice, within the first hour of dosing; cited from earlier work
[9] = patients; cited from earlier work
topoisomerase I = settings: cited from earlier work
[10] = Kinetic parameters for CPT-11 hydrolysis by purified recombinant CEs; type: biochemical; settings: hCE1 and rCE values rest on cited data
Protocol: To directly compare the abilities of the mammalian CEs to hydrolyze CPT-11, a series of biochemical studies were carried out using the purified proteins in vitro. These experiments determined the Km, Vmax, kcat and kcat/Km values for the different enzymes.
as §6, §7

[11] = In vitro stability of purified CE stored at room temperature in 50 mM Hepes; type: physicochemical; settings: purified protein in 50 mM Hepes pH7.4, room temperature
Protocol: Enzymes were aliquoted in 50 mM Hepes, stored at 20° C. and CE activities were determined at various time intervals, up to 11 weeks. Data are expressed as the amount of active CE remaining as compared to day 0.
Therefore, the loss of CE activity was evaluated in preparations of these proteins, as well as hCElm6 that had been stored at room temperature. In these studies, purified protein was aliquoted in 50 mM Hepes pH7.4, and enzyme activity was determined over a period of 12 weeks.

[12] = CE activity (o-NPA) in human tumor cell lines expressing CE after plasmid transfection or adenoviral transduction; type: biochemical
Description: […], it was observed that expression of hiCE following plasmid-mediated transfection was frequently lower than that seen with rCE or […]. […] Since expression of the transgene from this expression vector is co-regulated with the neo gene via an IRES sequence, selection with similar concentrations of G418 should result in cell lines that express approximately equal levels of recombinant protein. However, the average levels of CE activity in U373hiCE, U373hCE1 and U373hCE1m6 cells were 287.6±76.6, 1077.1±77.5, and 466.5±52.6 nmoles/min/mg, respectively.
Carboxylesterase Assays. CE activity was determined using a spectrophotometric assay with 3 mM o-nitrophenyl acetate (o-NPA) as a substrate (Potter, et al. 1998. Cancer Res. 52:2646-2651; Wierdl, et al. 2001. Cancer Res. 61:5078-5082; Beaufay, et al. 1974. J. Cell Biol. 61:188-200). Data were expressed as nmoles o-nitrophenol produced per minute per milligram of protein. To correct for differences in CE expression within transfected cells, the enzyme activity values were corrected for the level of immuno-reactive CE protein as determined from western analyses.
as §2, with “necessary. Routinely, whole cell sonicates obtained from these pooled populations of cells contained 200-500 nmoles/min/mg of CE activity.” for “necessary.”
as §3

[13] = substrate: CCc1c2c(nc3ccc(OC(=O)N4CCC(N5CCCCC5)CC4)cc13)-c1cc3c(c(=O)n1C2)COC(=O)[C@]3(O)CC; experiment: purified protein, by the assay type; settings: other: CPT-11 hydrolysis, hiCE

Work on `CCc1c2c(nc3ccc(OC(=O)N4CCC(N5CCCCC5)CC4)cc13)-c1cc3c(c(=O)n1C2)COC(=O)[C@]3(O)CC` [CPT-11, 7-ethyl-10-[4-(1-piperidino)-1-piperidino]carbonyloxycamptothecin] yielded an IC50 (U373MG cells [1]; Homo sapiens, U373 MG, read-out: CPT-11 IC50, U373IRES cells (pIRESneo, no enzyme expressed)) of 24 µM, a Vmax [2] of 2.11 ± 0.06 nmol/min/mg and a Vmax [3] of 1.49 ± 0.04 nmol/min/mg. It also gave an IC50 (COS7 cells; COS-7, read-out: IC50 (growth inhibition), cells expressing hCE1mut6) of 12 to 20 µM, an IC50 (COS7 cells; COS-7, read-out: IC50 (growth inhibition), cells expressing rCE) of 12 to 20 µM and an IC50 (COS7 cells; COS-7, read-out: IC50 (growth inhibition), cells expressing wild-type hCE1) of 77.1 µM. For the same molecule, the IC50 (U373MG cells [4]) was 7.08 µM, the IC50 (Rh30 cells; Rh30, read-out: CPT-11 IC50, AdCMVhCE1m6, hCE1m6) was 2 µM and the IC50 (Rh30 cells; Rh30, read-out: CPT-11 IC50, AdCMVrCE, rCE) was 3.4 µM. For the same molecule, the IC50 (Rh30 cells; Rh30, read-out: CPT-11 IC50, AdVC, no enzyme) was 64.3 µM, the IC50 (Rh30 cells; Rh30, read-out: IC50, Rh30, transduced cells) was 0.0006 µM and the IC50 (SK-N-As cells; read-out: CPT-11 IC50, AdCMVhCE1m6, hCE1m6) was 0.5 µM. For the same molecule, the IC50 (SK-N-As cells; read-out: CPT-11 IC50, AdCMVrCE, rCE) was 0.6 µM, the IC50 (SK-N-As cells; read-out: CPT-11 IC50, AdVC, no enzyme) was 31.7 µM and the IC50 (SK-N-As cells; read-out: IC50, SK-N-As, transduced cells) was 0.002 µM. For the same molecule, the Km [5] was 82.8 ± 9.6 µM, the Vmax [5] was 0.36 ± 0.017 nmol/min/mg and the Km [6] was 6.2 ± 0.63 µM. The Vmax [6] was 18 ± 0.9 nmol/min/mg, the “fraction of CPT-11 converted to SN-38” value [7] was “less than 5%” and the “fraction of CPT-11 hydrolyzed to SN-38” value [8] was “greater than 50%”. For the same molecule, the dose-limiting toxicity [9] was “myelosuppression and secretory diarrhea limit the amount of prodrug; also recorded: myelosuppression and secretory diarrhea limit the amount of drug”.

For `CCc1c2c(nc3ccc(O)cc13)-c1cc3c(c(=O)n1C2)COC(=O)[C@]3(O)CC` [SN-38, 7-ethyl-10-hydroxy-camptothecin], the “inhibition of topoisomerase I” value (topoisomerase I) is listed as “potent inhibitor of topoisomerase I”.

B1: hiCE (human intestinal carboxylesterase) (Homo sapiens) (protein)
chain: QDSASPIRTTHTGQVLGSLVHVKGANAGVQTFLGIPFAKPPLGPLRFAPPEPPESWSGVRDGTTHPAMCLQDLTAVESEFLSQFNMTFPSDSMSEDCLYLSIYTPAHSHEGSNLPVMVWIHGGALVFGMASLYDGSMLAALENVVVVIIQYRLGVLGFFSTGDKHATGNWGYLDQVAALRWVQQNIAHFGGNPDRVTIFGESAGGTSVSSLVVSPISQGLFHGAIMESGVALLPGLIASSADVISTVVANLSACDQVDSEALVGCLRGKSKEEILAINKPFKMIPGVVDGVFLPRHPQELLASADFQPVPSIVGVNNNEFGWLIPKVMRIYDTQKEMDREASQAALQKMLTLLMLPPTFGDLLREEYIGDNGDPQTLQAQFQEMMADSMFVIPALQVAHFQCSRAPVYFYEFQHQPSWLKNIRPPHMKADHGDELPFVFRSFFGGNYIKFTEEEEQLSRKMMKYWANFARNGNPNGEGLPHWPLFDQEEQYLQLNLQPAVGRALKAHRLQFWKKALPQKIQELEEPEERHTEL
In the case of B1, the “Ratio kcat/Km as compared to hCE1” value [10] is reported as 91, the “time to loss of 50% of CE activity” value [11] is reported as roughly 30 days and the “average levels of CE activity” value ([12]; U373MG cells stably transfected with pIRESneo constructs, monitored over an extended time period) is reported as 287.6 ± 76.6 nmol/min/mg. For the same molecule, the CE Activity ([12]; ± SD, U373MG cells stably transfected (pIRESneo) expressing the enzyme) was 408.2 ± 5.6 nmol/min/mg, the “sensitization of cells to CPT-11” value (U373MG cells [1]; U373MG cells expressing the labelled enzyme) was “sensitized” and the Km [13] was 3.35 ± 0.34 µM.
